Measured values reported in patent US20170311599A1, “Target for Anthelmintic Development, and Anthelmintics Utilizing the Same” (The University of Toledo, priority 2016, published 2017).
Entries after “also recorded” stand apart in the source; their conditions may differ. Like-named read-outs stand apart in the source and are kept apart here.

Columns and labels:
wild type C. elegans = assay: Paralysis assay on agar plates, wild type C. elegans; assay type: in vivo, Caenorhabditis elegans
[1] = system: 5-HT quint animals (C. elegans lacking all previously identified 5-HT receptors); assay: Paralysis assay, quintuple 5-HT receptor null C. elegans (5-HT quint); assay type: in vivo, Caenorhabditis elegans; details: for effect on locomotion: 5-HT quint, 5-HT
[2] = target: C. elegans 5-HT1-like receptor SER-4 (Caenorhabditis elegans, UniProt G5EGH0); assay: in vivo; assay type: in vivo; details: for effect on locomotion: SER-4 in cholinergic motor neurons; for activity from observations of nematode locomotion: FIGS. 9A-9B
Sequence of C. elegans 5-HT1-like receptor SER-4 (Caenorhabditis elegans, UniProt G5EGH0) (G5EGH0 entry or part of it): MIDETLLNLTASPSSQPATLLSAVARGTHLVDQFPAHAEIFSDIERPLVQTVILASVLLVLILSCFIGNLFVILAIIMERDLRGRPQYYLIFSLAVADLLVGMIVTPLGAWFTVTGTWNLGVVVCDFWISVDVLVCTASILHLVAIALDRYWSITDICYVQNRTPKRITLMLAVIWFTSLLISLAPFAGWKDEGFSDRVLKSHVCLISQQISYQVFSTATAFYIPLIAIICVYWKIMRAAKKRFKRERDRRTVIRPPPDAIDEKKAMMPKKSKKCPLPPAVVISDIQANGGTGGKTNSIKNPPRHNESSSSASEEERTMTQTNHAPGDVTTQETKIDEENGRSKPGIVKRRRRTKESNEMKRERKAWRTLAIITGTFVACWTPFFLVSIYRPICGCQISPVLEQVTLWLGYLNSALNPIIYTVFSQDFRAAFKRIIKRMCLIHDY

[3] = target: T1, Drosophila 5-HT1 orthologue (5HT1A) (Drosophila melanogaster, UniProt P28285); assay: Paralysis assay, 5-HT quint expressing Drosophila 5-HT1 orthologue in cholinergic motor neurons; assay type: in vivo
T1 sequence (P28285 1-834): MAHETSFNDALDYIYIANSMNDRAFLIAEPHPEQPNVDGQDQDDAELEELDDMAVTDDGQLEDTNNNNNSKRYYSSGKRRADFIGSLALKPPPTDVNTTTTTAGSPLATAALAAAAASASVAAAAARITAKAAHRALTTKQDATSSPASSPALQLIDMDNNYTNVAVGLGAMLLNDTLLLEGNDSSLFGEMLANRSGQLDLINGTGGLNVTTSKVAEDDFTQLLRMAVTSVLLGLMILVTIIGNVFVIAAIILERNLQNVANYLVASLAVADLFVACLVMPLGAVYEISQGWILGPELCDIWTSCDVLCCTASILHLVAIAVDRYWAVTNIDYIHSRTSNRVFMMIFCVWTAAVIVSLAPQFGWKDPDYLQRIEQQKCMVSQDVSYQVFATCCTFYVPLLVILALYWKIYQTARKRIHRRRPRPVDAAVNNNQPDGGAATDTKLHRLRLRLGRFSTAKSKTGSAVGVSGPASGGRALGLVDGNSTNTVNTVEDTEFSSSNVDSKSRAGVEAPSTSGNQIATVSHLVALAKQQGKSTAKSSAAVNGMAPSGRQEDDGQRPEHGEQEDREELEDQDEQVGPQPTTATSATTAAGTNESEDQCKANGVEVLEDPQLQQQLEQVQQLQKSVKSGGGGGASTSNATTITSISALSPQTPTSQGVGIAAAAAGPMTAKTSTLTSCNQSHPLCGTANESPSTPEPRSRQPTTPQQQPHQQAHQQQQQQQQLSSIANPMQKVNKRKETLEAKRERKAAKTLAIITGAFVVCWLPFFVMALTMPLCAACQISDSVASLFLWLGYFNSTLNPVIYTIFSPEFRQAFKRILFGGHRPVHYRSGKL

[4] = target: T2, human 5-HT1A receptor (HTR1A) (Homo sapiens, UniProt P08908); assay: Paralysis assay, 5-HT quint expressing human 5-HT1A receptor in cholinergic motor neurons; assay type: in vivo, Caenorhabditis elegans
T2 construct: GFP (C); clone ID: 9020250
T2 sequence (P08908 1-422): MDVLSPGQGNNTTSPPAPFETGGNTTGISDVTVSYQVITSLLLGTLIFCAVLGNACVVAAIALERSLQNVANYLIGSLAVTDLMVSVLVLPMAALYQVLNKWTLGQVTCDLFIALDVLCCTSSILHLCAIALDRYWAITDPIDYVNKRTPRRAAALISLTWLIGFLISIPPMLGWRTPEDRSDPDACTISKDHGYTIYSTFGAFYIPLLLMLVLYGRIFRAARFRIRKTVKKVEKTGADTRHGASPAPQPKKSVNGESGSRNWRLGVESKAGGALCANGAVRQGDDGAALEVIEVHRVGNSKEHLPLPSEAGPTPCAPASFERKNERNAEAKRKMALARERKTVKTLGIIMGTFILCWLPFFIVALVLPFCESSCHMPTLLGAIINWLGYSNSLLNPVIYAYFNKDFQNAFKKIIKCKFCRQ

bus-17 (e2800) mutants = assay: whole plant or invertebrate; assay type: in vivo; details: Caenorhabditis elegans, 10 min, read-out: EC50 of 5-HT-dependent paralysis
[5] = target: H. contortus (Hco) MOD-1 orthologue (Haemonchus contortus, UniProt M9MR50); assay: in vivo
Sequence of H. contortus (Hco) MOD-1 orthologue (M9MR50 entry or part of it): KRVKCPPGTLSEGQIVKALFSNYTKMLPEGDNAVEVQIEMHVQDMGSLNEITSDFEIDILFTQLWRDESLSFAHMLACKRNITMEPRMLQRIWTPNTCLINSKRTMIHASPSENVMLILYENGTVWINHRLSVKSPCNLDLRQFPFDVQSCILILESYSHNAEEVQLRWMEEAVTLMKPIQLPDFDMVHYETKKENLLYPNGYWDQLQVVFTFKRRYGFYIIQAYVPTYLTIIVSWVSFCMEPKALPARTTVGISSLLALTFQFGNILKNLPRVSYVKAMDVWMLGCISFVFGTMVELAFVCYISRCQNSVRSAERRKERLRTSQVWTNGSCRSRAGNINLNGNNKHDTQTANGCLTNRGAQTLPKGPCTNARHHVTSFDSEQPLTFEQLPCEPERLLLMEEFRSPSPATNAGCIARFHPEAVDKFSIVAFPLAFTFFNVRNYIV

[6] = system: flea (Ctenocephalides felis); assay: Flea (FF) membrane feed assay (adult); assay type: in vivo; details: adult fleas fed treated blood, 24 hours, lowest dose causing mortality ≧50%
Protocol: For the flea (FF) membrane feed assay (adult), compounds were dissolved in DMSO and aliquots were added to citrated bovine blood in membrane covered wells warmed to 37° C. Adult fleas were newly emerged (3-7 days) and unfed. Feeding wells containing approximately 10 adult fleas were placed onto the treated blood wells, and the fleas were allowed to feed on the treated blood for 24 hours. […] Each compound was tested at half-log intervals, and endpoint data was recorded as Minimum Effective Concentration (MEC) in μM. MEC is a subjective visual assessment of organism viability, and is the lowest dose to cause mortality ≧50%.

[7] = system: heartworm (Dirofilaria immitis) microfilaria; assay: Heartworm (HW) motility assay (microfilaria); assay type: in vivo; parameters: activity against heartworm: dose or concentration left out as unconfirmed; details: for HW (n = 2 mean), minimum efficacious dose (MED): microfilaria, 72 hour incubation, >50% decrease in motility
Protocol: For the heartworm (HW) motility assay (microfilaria), compounds were dissolved in DMSO and half log dilutions were placed into individual wells. […] […] The data reported is minimum efficacious dose (MED), which is the lowest concentration where there was a >50% decrease in motility compared to the DMSO controls.

[8] = system: Haemonchus contortus exsheathed L3 larvae; assay: Gastrointestinal nematode (HC) motility assay (exsheathed L3); assay type: in vivo; details: exsheathed L3, 96 hours, >50% decrease in motility
Protocol: For the gastrointestinal nematode (HC) motility assay ([…]3), compounds were dissolved in DMSO and half log dilutions were placed into individual wells. To each well was added approximately 100 Haemonchus contortus […]3 larvae in a buffered nutrient media containing glucose and antibiotic panel resulting in a final concentration curve ranging from 100 μM to 1 nM. […] The data reported is minimum efficacious dose (MED), which is the lowest concentration where there was a >50% decrease in motility compared to the DMSO controls.

[9] = target: H. contortus (Hco) LGC-55 orthologue (Haemonchus contortus, UniProt D7F471); assay: in vivo
Sequence of H. contortus (Hco) LGC-55 orthologue (D7F471 entry or part of it): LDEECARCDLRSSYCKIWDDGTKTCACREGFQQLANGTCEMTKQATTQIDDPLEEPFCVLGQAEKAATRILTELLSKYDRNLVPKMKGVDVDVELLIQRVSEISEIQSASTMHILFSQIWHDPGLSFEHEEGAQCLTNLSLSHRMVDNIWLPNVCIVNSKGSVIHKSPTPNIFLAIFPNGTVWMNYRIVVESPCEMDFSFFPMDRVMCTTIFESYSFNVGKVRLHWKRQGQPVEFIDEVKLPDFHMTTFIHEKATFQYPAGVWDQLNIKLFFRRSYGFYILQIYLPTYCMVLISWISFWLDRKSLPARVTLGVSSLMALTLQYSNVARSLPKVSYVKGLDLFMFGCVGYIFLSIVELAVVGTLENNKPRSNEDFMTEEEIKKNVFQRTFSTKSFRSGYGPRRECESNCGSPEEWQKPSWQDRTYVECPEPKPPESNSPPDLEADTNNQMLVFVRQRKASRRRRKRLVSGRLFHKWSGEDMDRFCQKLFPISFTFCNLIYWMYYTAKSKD

[10] = system: TA quad animals (lack all previously identified TA receptors); assay: Paralysis assay, quadruple TA receptor null C. elegans (TA quad); assay type: in vivo, Caenorhabditis elegans
[11] = target: C. elegans LGC-55 (TA-gated Cl- channel) (Caenorhabditis elegans, UniProt G5EEC1); assay: Paralysis assay, TA quad expressing C. elegans LGC-55
Sequence of C. elegans LGC-55 (TA-gated Cl- channel) (G5EEC1 entry or part of it): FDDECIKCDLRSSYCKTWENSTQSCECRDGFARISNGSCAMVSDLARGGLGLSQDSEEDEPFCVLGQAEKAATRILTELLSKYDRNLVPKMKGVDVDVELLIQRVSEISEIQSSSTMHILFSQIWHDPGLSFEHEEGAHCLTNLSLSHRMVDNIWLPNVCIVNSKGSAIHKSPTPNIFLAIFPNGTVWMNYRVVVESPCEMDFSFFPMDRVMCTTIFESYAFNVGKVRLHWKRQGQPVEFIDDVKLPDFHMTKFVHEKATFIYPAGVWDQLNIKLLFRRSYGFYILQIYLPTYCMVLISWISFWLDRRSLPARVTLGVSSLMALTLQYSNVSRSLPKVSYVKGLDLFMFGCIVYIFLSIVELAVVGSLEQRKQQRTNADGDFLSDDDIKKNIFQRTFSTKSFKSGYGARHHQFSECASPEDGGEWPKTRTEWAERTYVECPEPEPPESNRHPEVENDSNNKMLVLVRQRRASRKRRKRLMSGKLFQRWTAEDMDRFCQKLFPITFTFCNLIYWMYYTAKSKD

[12] = system: Drosophila histamine-gated Cl- channel (HisCl1)
[13] = system: C. elegans 5-HT1-like receptor SER-4; assay: in vivo; assay type: in vivo, Caenorhabditis elegans; details: paralysis screen, FIGS. 9A-9B
[14] = exogenous 5-HT (1 mM), hypotonic

Compound: NCCc1c[nH]c2ccc(O)cc12 [5-HT, Serotonin]
- paralysis (wild type C. elegans; 1 mM 5-HT, 10 min exposure, hypotonic non-NGM agar): 50%
- paralysis (wild type C. elegans; 15 mM 5-HT, NGM agar plates): rapid paralysis
- EC50 (wild type C. elegans; Caenorhabditis elegans, 10 min, isotonic NGM agar plates, 10 min, read-out: EC50 of 5-HT-dependent paralysis): 11500 µM
- EC50 (wild type C. elegans; Caenorhabditis elegans, hypotonic (agar alone without NGM, salt-free), read-out: EC50 of 5-HT-dependent paralysis): ~400 µM
- EC50 (wild type C. elegans; hypotonic (agar alone without NGM, salt-free), read-out: EC50 of 5-HT-dependent paralysis): ~500 µM
- EC50 (wild type C. elegans; isotonic NGM agar plates, 10 min, read-out: EC50 of 5-HT-dependent paralysis): ~12000 µM
- effect on locomotion ([1]; NGM agar plates): no effect on locomotion
- effect on locomotion ([1]; hypotonic non-NGM agar plates): no effect on locomotion
- paralysis ([2]; 5-HT quint expressing SER-4 in AIB interneurons (Pnpr-9), 5-HT (1 mM), hypotonic): rapidly paralyzed
- paralysis ([2]; 5-HT quint expressing SER-4 in cholinergic motor neurons (Punc-17β), 5-HT (1 mM), hypotonic): rapidly paralyzed
- paralysis ([2]; SER-4 quad (ser-5;mod-1;ser-7 ser-1 quadruple null), 15 mM 5-HT, NGM agar plates): rapid paralysis
- locomotion [3, 14]: dramatically inhibited
- locomotion [4, 14]: dramatically inhibited
- EC50 (bus-17 (e2800) mutants): ~240 µM
- EC50 [5]: ~200 µM

Compound: CNS(=O)(=O)Cc1ccc2[nH]cc(CCN(C)C)c2c1 [sumatriptan, sumatriptan succinate]
- effect on locomotion (wild type C. elegans; 0.5 mM sumatriptan, hypotonic): no effect on locomotion
- effect on locomotion ([2]; 0.5 mM sumatriptan): no effect on locomotion
- effect on locomotion ([3]; 0.5 mM sumatriptan): no effect on locomotion
- effect on locomotion ([4]; 0.5 mM sumatriptan): no effect on locomotion
- paralysis ([4]; sumatriptan at higher concentrations (1 mM)): failed to fully paralyze

Compound: CSCCC(NC(=O)C(Cc1ccc(O)cc1)NC(=O)Cc1c[nH]c2ccccc12)C(=O)NC(C)C(=O)O [CD3-276, N-[(Indol-3)acetyl]-D-Tyrosyl-Methionyl-D-alanine]
- FF (n = 2 mean), Minimum Effective Concentration (MEC) [6]: >100 µg/mL
- activity against heartworm [7]: inactive
- HW (n = 2 mean), minimum efficacious dose (MED) [7]: >100 µg/mL
- HC (n = 2 mean), minimum efficacious dose (MED) [8]: >100 µg/mL

Compound: CCCc1[nH]c2ccc(OC)cc2c1/C=C/C(=O)c1ccncc1 [CD3-980]
- activity from observations of nematode locomotion [2]: at least moderate activity with favorable species selectivity

Compound: NCCc1ccc(O)cc1 [TA, tyramine]
- EC50 [9]: ~100 µM
- effect on locomotion [10]: no effect on locomotion
- EC50 [11]: ~100 µM

Compound: Cl.Cl.NCCc1c[nH]cn1 [histamine, histamine dihydrochloride]
- paralysis (wild type C. elegans; 2 mM histamine, NGM plates): did not cause paralysis
- paralysis ([12]; 2 mM histamine, NGM plates): did not cause paralysis
- paralysis ([12]; 2 mM histamine, hypotonic assay conditions): caused significance paralysis
- paralysis ([12]; 10 mM histamine, NGM plates): caused significance paralysis

Compound: O=C(/C=C/c1c[nH]c2ccc(O)cc12)c1ccncc1 [CD3-718, trans-3-(5-hydroxy-1H-indol-3-yl)-1-(4-pyridinyl)-2-propen-1-one]
- paralysis (wild type C. elegans; 15 minutes exposure): causing paralysis
- paralysis ([1]; 5-HT quint animals, 15 minutes exposure): not in animals that do not express any previously identified 5-HT receptors
- paralysis ([2]; animals expressing the nematode 5-HT1 receptor (SER-4), 15 minutes exposure): causing paralysis
- selectivity for C. elegans 5-HT1 versus human 5-HT1 [13]: remarkable selectivity; also recorded: remarkably selective
- FF (n = 2 mean), Minimum Effective Concentration (MEC) [6]: >100 µg/mL
- activity against heartworm [7]: inactive
- HW (n = 2 mean), minimum efficacious dose (MED) [7]: >100 µg/mL
- HC (n = 2 mean), minimum efficacious dose (MED) [8]: >100 µg/mL

Compound: O=C(/C=C/c1c[nH]c2ccccc12)c1ccccc1 [CD3-664]
- FF (n = 2 mean), Minimum Effective Concentration (MEC) [6]: >100 µg/mL
- activity against heartworm [7]: active against heartworm
- HW (n = 2 mean), minimum efficacious dose (MED) [7]: 100 µg/mL
- HC (n = 2 mean), minimum efficacious dose (MED) [8]: >100 µg/mL

Compound: COc1ccc2[nH]c(CC(C)C)c(/C=C/C(=O)c3ccncc3)c2c1 [CD3-984]
- activity from observations of nematode locomotion [2]: at least moderate activity with favorable species selectivity

Compound: Nc1ccc(CCN2CCN(c3cccc(C(F)(F)F)c3)CC2)cc1 [PAPP, p-amino-phenethyl-m-trifluoromethylphenyl piperazine]
- EC50 (wild type C. elegans; Caenorhabditis elegans, 0.25 h, 15 min exposure, hypotonic, read-out: EC50 of PAPP-dependent paralysis): 370 µM
- EC50 ([1]; Caenorhabditis elegans, 0.25 h, read-out: EC50 of PAPP-dependent paralysis): 680 µM
- EC50 [2]: 170 µM

Compound: CCCN(CCC)C1CCc2cccc(O)c2C1 (stereo not shown) [8-OH-DPAT, 8-hydroxy-2-(di-n-propylamino) tetralin]
- effect on locomotion ([2]; 8-OH-DPAT at 2 mM, hypotonic): no effect on locomotion
- effect on locomotion ([3]; 8-OH-DPAT at 2 mM, hypotonic): no effect on locomotion
- paralysis ([4]; 8-OH-DPAT (2 mM), hypotonic): rapidly paralyzed

Compound: COc1ccc2[nH]c(C)c(/C=C/C(=O)c3ccncc3)c2c1 [CD3-719]
- activity from observations of nematode locomotion [2]: decreased activity
